From patent publication US7205304B2, “Sulfonyl-Derivatives as novel inhibitors of histone deacetylase” (Janssen Pharmaceutica N.V., priority 2002, dated 2007)
Converted amounts (≈) assume the structure as drawn.

Key:
[1] = molecular target: histone deacetylase (HeLa nuclear extracts); test: In vitro assay for inhibition of histone deacetylase; type: biochemical; settings: [3H]acetylated histone H4 peptide substrate
[2] = system: A2780 ovarian carcinoma cells; test: Antiproliferative activity on A2780 cells (MTT); type: cell-based, human; settings: Homo sapiens, A2780, 96 h, four days of incubation, read-out: Cellular activity pIC50 (converted)
Outline: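 A2780 ovarian carcinoma cells were seeded at 1500 cells/well and exposed to compound for four days, with DMSO ≤0.1%. Viability was measured by MTT (2 h, 37° C) and expressed as a percentage of untreated controls after blank subtraction. Initial single-point testing was at 10^−6 M, then full curves gave pIC50.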

[3] = Kinetic solubility in aqueous media (nephelometry); type: physicochemical; settings: phosphate citrate buffer, pH 7.4, aqueous buffer, kinetic from dmso stock, phosphate citrate buffer pH 7.4, turbidity of three dilution steps; read-out: Solubility Score
Outline: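 DMSO stock (5 mM) diluted in three consecutive steps into phosphate citrate buffer pH 7.4, in triplicate; turbidity of each dilution read by nephelometry immediately after the last step. Compounds ranked into 3 classes: score 3 if first dilution clear, 2 if first unclear but second clear.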

melting point [°C]	Enzyme activity pIC50 [1]	IC50 [2] [µM]	solubility [3] [µM]	Compound
226	<5	3.88	–	O=C(Nc1ccc(N2CCN(S(=O)(=O)c3ccc4ccccc4c3)CC2)cc1)/C(Cc1ccccc1)=N/O [Compound 9]
114	6.787	2.58	> 454	CN(C)CC1CN(c2ncc(C(=O)NO)cn2)CCN1S(=O)(=O)c1ccc2ccccc2c1 (stereo not shown) [Compound 123]
192	–	–	–	CN(C)Cc1sccc1-c1ccc(S(=O)(=O)N2CCN(c3ncc(C(=O)NO)cn3)CC2)cc1 [Co. No. 124]
210	6.741	5.3	> 454	NC(=O)C1CN(c2ncc(C(=O)NO)cn2)CCN1S(=O)(=O)c1ccc2ccccc2c1 (stereo not shown) [Compound 118]
197	<5	8.2	–	CCOc1nc(N2CCN(S(=O)(=O)c3ccc4ccccc4c3)CC2)ncc1C(=O)NO [Compound 12]
166	7.06	> 10	–	O=C(NO)c1cnc(N2CCN(S(=O)(=O)c3ccc4ccccc4c3)C(C(=O)NO)C2)nc1 (stereo not shown) [Compound 122]
196	<5	1.01	–	O=C(NO)c1ccc(N2CCN(S(=O)(=O)c3ccc4ccccc4c3)CC2)cc1C(F)(F)F [Compound 11]
135	<5	2.02	–	CN(C)c1nc(N2CCN(S(=O)(=O)c3ccc4ccccc4c3)CC2)ncc1C(=O)NO [Compound 115]
238	<5	0.442	< 75.8	Nc1ccccc1NC(=O)c1cnc(N2CCN(S(=O)(=O)c3ccc4ccccc4c3)CC2)nc1 [Compound 13]
220	6.833	2.77	> 454	O=C(NO)c1cnc(N2CCN(S(=O)(=O)c3ccc4ccccc4c3)C(CO)C2)nc1 (stereo not shown) [Compound 121]
210	<5	> 10	75.8 to 454 (≈ 32.3 to 194 µg/mL)	O=C(NO)Nc1ccc(N2CCN(S(=O)(=O)c3ccc4ccccc4c3)CC2)cc1 [Compound 4]
200	<5	> 10	–	CN(C)C(=O)c1ccc(N2CCN(S(=O)(=O)c3ccc4ccccc4c3)CC2)nn1 [Compound 113]
179	6.7	> 10	< 75.8	CC(=O)SCC(=O)c1ccc(N2CCN(S(=O)(=O)c3ccc4ccccc4c3)CC2)cc1 [Compound 10]
252	<5	> 10	–	Cn1cnc(C(=O)Nc2ccc(N3CCN(S(=O)(=O)c4ccc5ccccc5c4)CC3)cc2)c1 [Compound 5]
225	5.215	> 10	–	O=C(NO)c1cnc(N2CCN(S(=O)(=O)c3ccc4ccccc4c3)CC2)nc1NO [Compound 119]
> 260	7.107	0.206	> 454	O=C(NO)c1cnc(N2CCN(S(=O)(=O)c3ccc(-c4cccc(CCO)c4)cc3)CC2)nc1 [Compound 129]
–	5.841	2.61	75.8 to 454 (≈ 32.6 to 195 µg/mL)	O=C(NO)c1ccc(N2CCN(S(=O)(=O)c3ccccc3C(F)(F)F)CC2)cc1 [Compound 74]
–	8.228	0.0962	> 454	CN1CCN(Cc2ccccc2-c2ccc(S(=O)(=O)N3CCN(c4ncc(C(=O)NO)cn4)CC3)cc2)CC1 [Compound 157]
–	8.156	0.164	> 454	O=C(NO)c1cnc(N2CCN(S(=O)(=O)c3ccc(-c4ccsc4CN4CCN(CCO)CC4)cc3)CC2)nc1 [Compound 152]
146.9	–	–	–	O=C(NO)c1cnc(N2CCN(S(=O)(=O)c3ccc(-c4ccccc4OCCN4CCCC4)cc3)CC2)nc1 (hydrate or solvate) [Co. No. 125]
–	8.338	0.0724	> 454	CN1CCN(Cc2cccc(-c3ccc(S(=O)(=O)N4CCN(c5ncc(C(=O)NO)cn5)CC4)cc3)c2)CC1 [Compound 169]
–	7.332	0.107	75.8 to 454 (≈ 35.6 to 213 µg/mL)	COc1cccc(-c2ccc(S(=O)(=O)N3CCN(c4ncc(C(=O)NO)cn4)CC3)cc2)c1 [Compound 15]
–	8.308	0.0483	75.8 to 454 (≈ 42 to 252 µg/mL)	CN(C)CCN(C)Cc1ccc(-c2ccc(S(=O)(=O)N3CCN(c4ncc(C(=O)NO)cn4)CC3)cc2)cc1 [Compound 164]
–	6.539	0.558	75.8 to 454 (≈ 39.3 to 236 µg/mL)	CN(c1ccccc1)c1ccc2cc(S(=O)(=O)N3CCN(c4ncc(C(=O)NO)cn4)CC3)ccc2c1 [Compound 186]

melting point [°C]	Enzyme activity pIC50 [1]	IC50 [2] [µM]	solubility [3] [µM]	Compound
–	6.159	0.752	75.8 to 454 (≈ 41.4 to 248 µg/mL)	O=C(NO)c1cnc(N2CCN(S(=O)(=O)c3ccc(-c4cccc5c4sc4ccccc45)cc3)CC2)nc1 [Compound 130]
–	8.152	0.137	> 454	CN(CCO)Cc1sccc1-c1ccc(S(=O)(=O)N2CCN(c3ncc(C(=O)NO)cn3)CC2)cc1 [Compound 151]
–	7.467	1.11	> 454	O=C(NO)c1cnc(N2CCN(S(=O)(=O)c3cccs3)CC2)nc1 [Compound 90]
243	–	–	–	O=C(NO)c1cnc(N2CCN(S(=O)(=O)c3ccc(-c4cccc(CCN5CCCC5)c4)cc3)CC2)nc1 [Co. No. 127]
–	5.409	0.384	< 75.8	O=C(NO)c1ccc(N2CCN(S(=O)(=O)CCc3cccc4ccccc34)CC2)cc1 [Compound 62]
–	7.797	0.258	75.8 to 454 (≈ 34.4 to 206 µg/mL)	Cc1ccccc1-c1ccc(S(=O)(=O)N2CCN(c3ncc(C(=O)NO)cn3)CC2)cc1 [Compound 106]
–	8.212	0.0804	> 454	CN1CCN(CCc2cccc(-c3ccc(S(=O)(=O)N4CCN(c5ncc(C(=O)NO)cn5)CC4)cc3)c2)CC1 [Compound 174]
–	<5	0.764	< 75.8	Nc1ccccc1NC(=O)c1ccc(N2CCN(S(=O)(=O)c3ccc4ccccc4c3)CC2)cc1 [Compound 17]
–	5.177	0.855	< 75.8	Cc1c(C)c(S(=O)(=O)N2CCN(c3ccc(C(=O)NO)cc3)CC2)c(C)c2c1OC(C)(C)C2 [Compound 67]
–	6.621	5.79	> 454	O=C(NO)c1cnc(N2CCN(S(=O)(=O)N3CCOCC3)CC2)nc1 [Compound 14]
–	6.157	1.3	< 75.8	O=C(NO)c1ccc(N2CCN(S(=O)(=O)c3cccc(-c4ccccc4)c3)CC2)cc1 [Compound 83]
–	8.45	0.0471	> 454	O=C(NO)c1cnc(N2CCN(S(=O)(=O)c3ccc(-c4cccc(CN5CCCC5)c4)cc3)CC2)nc1 [Compound 171]
–	7.428	0.75	> 454	O=C(NO)c1cnc(N2C[C@@H]3C[C@H]2CN3S(=O)(=O)c2ccc3ccccc3c2)nc1 [Compound 114]
–	6.449	2.47	> 454	O=C(NO)c1ccc(N2CCN(S(=O)(=O)c3cccc4cccnc34)CC2)cc1 [Compound 71]
–	6.494	0.798	< 75.8	CC(C)(C)c1ccc(-c2ccc(S(=O)(=O)N3CCN(c4ncc(C(=O)NO)cn4)CC3)cc2)cc1 [Compound 105]
–	6.212	3.96	< 75.8	O=C(NO)c1ccc(N2CCN(S(=O)(=O)Cc3ccccc3)CC2)cc1 [Compound 73]
–	<5	> 10	< 75.8	O=C(CS)Nc1ccc(N2CCN(S(=O)(=O)c3ccc4ccccc4c3)CC2)cc1 [Compound 19]
–	6.197	1.33	< 75.8	O=C(NO)c1ccc(N2CCN(S(=O)(=O)c3ccc(Cl)s3)CC2)cc1 [Compound 66]
–	7.146	0.119	75.8 to 454 (≈ 34.4 to 206 µg/mL)	Cc1ccc(-c2ccc(S(=O)(=O)N3CCN(c4ncc(C(=O)NO)cn4)CC3)cc2)cc1 [Compound 179]
–	6.255	2.79	75.8 to 454 (≈ 28.8 to 172 µg/mL)	O=C(NO)c1ccc(N2CCN(S(=O)(=O)c3cccc(F)c3)CC2)cc1 [Compound 61]
–	7.947	0.0556	< 75.8	O=C(NO)c1cnc(N2CCN(S(=O)(=O)c3ccc(-c4ccc(CN5CCN(CCOCCO)CC5)cc4)cc3)CC2)nc1 [Compound 165]
–	8.272	0.278	75.8 to 454 (≈ 42.2 to 253 µg/mL)	O=C(NO)c1cnc(N2CCN(S(=O)(=O)c3ccc(-c4ccccc4CN(CCO)CCO)cc3)CC2)nc1 [Compound 160]
–	8.078	0.0813	75.8 to 454 (≈ 33.3 to 200 µg/mL)	O=C(NO)c1cnc(N2CCN(S(=O)(=O)c3ccc(-c4ccccc4)cc3)CC2)nc1 [Compound 128]
